Reference: US9951063B2, “8-(piperazin-1-yl)-1,2,3,4-tetrahydro-isoquinoline derivatives” (IDORSIA PHARMACEUTICALS LTD, priority 2014, dated 2018)

molecular target: human CXCR3A (Homo sapiens (Human), UniProt P49682); assay: FLIPR assay (inhibition of CXCL10-induced calcium signal); assay type: cell-based; conditions: engineered CHO-K1 cells expressing human CXCR3A coupled to Galpha(16); Fluo-4-AM; CXCL10 agonist 20 nM; mean values where determined several times
Method in brief: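 CHO-K1 cells expressing human CXCR3A coupled to Gα16 were loaded with Fluo-4-AM for 1 h in HBSS/20 mM Hepes pH 7.4 with probenecid. Compound was added, then CXCL10 (20 nM as dispensed). Baseline-subtracted peak fluorescence gave inhibition curves and IC50, averaged over repeats.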

Chain of human CXCR3A (P49682 whole entry): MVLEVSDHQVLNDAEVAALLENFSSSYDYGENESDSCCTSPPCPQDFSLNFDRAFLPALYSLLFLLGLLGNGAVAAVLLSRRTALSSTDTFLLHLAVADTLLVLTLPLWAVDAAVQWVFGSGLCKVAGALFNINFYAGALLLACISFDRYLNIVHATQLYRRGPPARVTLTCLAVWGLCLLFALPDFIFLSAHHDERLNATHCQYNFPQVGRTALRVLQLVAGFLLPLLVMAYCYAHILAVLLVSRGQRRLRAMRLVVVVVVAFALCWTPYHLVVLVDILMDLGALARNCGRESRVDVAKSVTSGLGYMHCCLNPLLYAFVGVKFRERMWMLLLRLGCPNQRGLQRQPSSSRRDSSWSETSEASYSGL

Row | IC50 | Compound
1 | 80.2 nM | C[C@@H]1CN(c2cccc3c2CN(C(=O)[C@@H]2CCCc4ccccc42)CC3)CCN1C(=O)Cn1cnc2cccnc21 [Example 71, 2-Imidazo[4,5-b]pyridin-3-yl-1-{(R)-2-methyl-4-[2-((R)-1,2,3,4-tetrahydro-naphthalene-1-carbonyl)-1,2,3,4-tetrahydro-isoquinolin-8-yl]-piperazin-1-yl}-ethanone]
2 | 92.2 nM | C[C@@H]1CN(c2cccc3c2CN(C(=O)c2ccccc2)CC3)CCN1C(=O)Cn1cnc2cccnc21 [Example 72, 1-[(R)-4-(2-Benzoyl-1,2,3,4-tetrahydro-isoquinolin-8-yl)-2-methyl-piperazin-1-yl]-2-imidazo[4,5-b]pyridin-3-yl-ethanone]
3 | 111 nM | Cc1ccc(C(=O)N2CCc3cccc(N4CCN(C(=O)Cn5cnc6cccnc65)[C@H](C)C4)c3C2)cc1 [Example 73, 2-Imidazo[4,5-b]pyridin-3-yl-1-{(R)-2-methyl-4-[2-(4-methyl-benzoyl)-1,2,3,4-tetrahydro-isoquinolin-8-yl]-piperazin-1-yl}-ethanone]
4 | 46.6 nM | C[C@@H]1CN(c2cccc3c2CN(C(=O)c2ccc(Cl)cc2)CC3)CCN1C(=O)Cn1cnc2cccnc21 [Example 74, 1-{(R)-4-[2-(4-Chloro-benzoyl)-1,2,3,4-tetrahydro-isoquinolin-8-yl]-2-methyl-piperazin-1-yl}-2-imidazo[4,5-b]pyridin-3-yl-ethanone]
5 | 17 nM | C[C@@H]1CN(c2cccc3c2CN(C(=O)c2ccc(Cl)c(Cl)c2)CC3)CCN1C(=O)Cn1cnc2cccnc21 [Example 75, 1-{(R)-4-[2-(3,4-Dichloro-benzoyl)-1,2,3,4-tetrahydro-isoquinolin-8-yl]-2-methyl-piperazin-1-yl}-2-imidazo[4,5-b]pyridin-3-yl-ethanone]
6 | 82.4 nM | C[C@@H]1CN(c2cccc3c2CN(C(=O)c2cccc(N(C)C)c2)CC3)CCN1C(=O)Cn1cnc2cccnc21 [Example 76, 1-{(R)-4-[2-(3-Dimethylamino-benzoyl)-1,2,3,4-tetrahydro-isoquinolin-8-yl]-2-methyl-piperazin-1-yl}-2-imidazo[4,5-b]pyridin-3-yl-ethanone]
7 | 92.3 nM | C[C@@H]1CN(c2cccc3c2CN(C(=O)c2ccc(C(F)(F)F)cc2)CC3)CCN1C(=O)Cn1cnc2cccnc21 [Example 77, 2-Imidazo[4,5-b]pyridin-3-yl-1-{(R)-2-methyl-4-[2-(4-trifluoromethyl-benzoyl)-1,2,3,4-tetrahydro-isoquinolin-8-yl]-piperazin-1-yl}-ethanone]
8 | 216 nM | C[C@@H]1CN(c2cccc3c2CN(C(=O)Cc2ccccc2)CC3)CCN1C(=O)Cn1cnc2cccnc21 [Example 78, 2-Imidazo[4,5-b]pyridin-3-yl-1-[(R)-2-methyl-4-(2-phenylacetyl-1,2,3,4-tetrahydro-isoquinolin-8-yl)-piperazin-1-yl]-ethanone]
9 | 570 nM | C[C@@H]1CN(c2cccc3c2CN(C(=O)[C@H](C)c2ccccc2)CC3)CCN1C(=O)Cn1cnc2cccnc21 [Example 79, (R)-1-{8-[(R)-4-(2-Imidazo[4,5-b]pyridin-3-yl-acetyl)-3-methyl-piperazin-1-yl]-3,4-dihydro-1H-isoquinolin-2-yl}-2-phenyl-propan-1-one]
10 | 199 nM | C[C@@H]1CN(c2cccc3c2CN(C(=O)C2(c4ccccc4)CC2)CC3)CCN1C(=O)Cn1cnc2cccnc21 [Example 80, 2-Imidazo[4,5-b]pyridin-3-yl-1-{(R)-2-methyl-4-[2-(1-phenyl-cyclopropanecarbonyl)-1,2,3,4-tetrahydro-isoquinolin-8-yl]-piperazin-1-yl}-ethanone]
11 | 65.1 nM | C[C@@H]1CN(c2cccc3c2CN(C(=O)COc2ccccc2)CC3)CCN1C(=O)Cn1cnc2cccnc21 [Example 81, 2-Imidazo[4,5-b]pyridin-3-yl-1-{(R)-2-methyl-4-[2-(2-phenoxy-acetyl)-1,2,3,4-tetrahydro-isoquinolin-8-yl]-piperazin-1-yl}-ethanone]
12 | 88.1 nM | C[C@@H]1CN(c2cccc3c2CN(C(=O)CCc2ccc(Cl)cc2)CC3)CCN1C(=O)Cn1cnc2cccnc21 [Example 82, 3-(4-Chloro-phenyl)-1-{8-[(R)-4-(2-imidazo[4,5-b]pyridin-3-yl-acetyl)-3-methyl-piperazin-1-yl]-3,4-dihydro-1H-isoquinolin-2-yl}-propan-1-one]
13 | 450 nM | C[C@@H]1CN(c2cccc3c2CN(C(=O)CCc2ccccc2)CC3)CCN1C(=O)Cn1cnc2cccnc21 [Example 83, 1-{8-[(R)-4-(2-Imidazo[4,5-b]pyridin-3-yl-acetyl)-3-methyl-piperazin-1-yl]-3,4-dihydro-1H-isoquinolin-2-yl}-3-phenyl-propan-1-one]
14 | 99.7 nM | C[C@@H]1CN(c2cccc3c2CN(C(=O)CCc2ccc(Cl)c(Cl)c2)CC3)CCN1C(=O)Cn1cnc2cccnc21 [Example 84, 3-(3,4-Dichloro-phenyl)-1-{8-[(R)-4-(2-imidazo[4,5-b]pyridin-3-yl-acetyl)-3-methyl-piperazin-1-yl]-3,4-dihydro-1H-isoquinolin-2-yl}-propan-1-one]
15 | 866 nM | C[C@@H]1CN(c2cccc3c2CN(C(=O)c2ccc4ncccc4c2)CC3)CCN1C(=O)Cn1cnc2cccnc21 [Example 85, 2-Imidazo[4,5-b]pyridin-3-yl-1-{(R)-2-methyl-4-[2-(quinoline-6-carbonyl)-1,2,3,4-tetrahydro-isoquinolin-8-yl]-piperazin-1-yl}-ethanone]
16 | 686 nM | C[C@@H]1CN(c2cccc3c2CN(C(=O)Cn2cnc4ccccc42)CC3)CCN1C(=O)Cn1cnc2cccnc21 [Example 86, 1-{(R)-4-[2-(2-Benzoimidazol-1-yl-acetyl)-1,2,3,4-tetrahydro-isoquinolin-8-yl]-2-methyl-piperazin-1-yl}-2-imidazo[4,5-b]pyridin-3-yl-ethanone]
17 | 5420 nM | C[C@@H]1CN(c2cccc3c2CN(C(=O)Cn2cccn2)CC3)CCN1C(=O)Cn1cnc2cccnc21 [Example 87, 2-Imidazo[4,5-b]pyridin-3-yl-1-{(R)-2-methyl-4-[2-(2-pyrazol-1-yl-acetyl)-1,2,3,4-tetrahydro-isoquinolin-8-yl]-piperazin-1-yl}-ethanone]
18 | 1910 nM | C[C@@H]1CN(c2cccc3c2CN(C(=O)CN2CCOCC2)CC3)CCN1C(=O)Cn1cnc2cccnc21 [Example 88, 2-Imidazo[4,5-b]pyridin-3-yl-1-{(R)-2-methyl-4-[2-(2-morpholin-4-yl-acetyl)-1,2,3,4-tetrahydro-isoquinolin-8-yl]-piperazin-1-yl}-ethanone]
19 | 955 nM | C[C@@H]1CN(c2cccc3c2CN(C(=O)c2ccnn2C)CC3)CCN1C(=O)Cn1cnc2cccnc21 [Example 89, 2-Imidazo[4,5-b]pyridin-3-yl-1-{(R)-2-methyl-4-[2-(2-methyl-2H-pyrazole-3-carbonyl)-1,2,3,4-tetrahydro-isoquinolin-8-yl]-piperazin-1-yl}-ethanone]
20 | 11.2 nM | Cc1ccc(N2CCc3cccc(N4CCN(C(=O)Cn5cnc6cccnc65)[C@H](C)C4)c3C2)nc1 [Example 90, 2-Imidazo[4,5-b]pyridin-3-yl-1-{(R)-2-methyl-4-[2-(5-methyl-pyridin-2-yl)-1,2,3,4-tetrahydro-isoquinolin-8-yl]-piperazin-1-yl}-ethanone]
21 | 8.01 nM | C[C@@H]1CN(c2cccc3c2CN(c2ccc(F)cn2)CC3)CCN1C(=O)Cn1cnc2cccnc21 [Example 91, 1-{(R)-4-[2-(5-Fluoro-pyridin-2-yl)-1,2,3,4-tetrahydro-isoquinolin-8-yl]-2-methyl-piperazin-1-yl}-2-imidazo[4,5-b]pyridin-3-yl-ethanone]
22 | 0.97 nM | Cc1ccc(N2CCc3cccc(N4CCN(C(=O)Cn5cnc6cccnc65)[C@H](C)C4)c3C2)cn1 [Example 92, 2-Imidazo[4,5-b]pyridin-3-yl-1-{(R)-2-methyl-4-[2-(6-methyl-pyridin-3-yl)-1,2,3,4-tetrahydro-isoquinolin-8-yl]-piperazin-1-yl}-ethanone]
23 | 7.55 nM | C[C@@H]1CN(c2cccc3c2CN(c2ccc(Cl)cc2)CC3)CCN1C(=O)Cn1cnc2cccnc21 [Example 93, 1-{(R)-4-[2-(4-Chloro-phenyl)-1,2,3,4-tetrahydro-isoquinolin-8-yl]-2-methyl-piperazin-1-yl}-2-imidazo[4,5-b]pyridin-3-yl-ethanone]
24 | 61.9 nM | COc1ccccc1N1CCc2cccc(N3CCN(C(=O)Cn4cnc5cccnc54)[C@H](C)C3)c2C1 [Example 94, 2-Imidazo[4,5-b]pyridin-3-yl-1-{(R)-4-[2-(2-methoxy-phenyl)-1,2,3,4-tetrahydro-isoquinolin-8-yl]-2-methyl-piperazin-1-yl}-ethanone]
25 | 7.8 nM | C[C@@H]1CN(c2cccc3c2CN(c2ccc(C#N)cc2)CC3)CCN1C(=O)Cn1cnc2cccnc21 [Example 95, 4-{8-[(R)-4-(2-Imidazo[4,5-b]pyridin-3-yl-acetyl)-3-methyl-piperazin-1-yl]-3,4-dihydro-1H-isoquinolin-2-yl}-benzonitrile]
26 | 25.5 nM | C[C@@H]1CN(c2cccc3c2CN(c2ccc(C(F)(F)F)cc2)CC3)CCN1C(=O)Cn1cnc2cccnc21 [Example 96, 2-Imidazo[4,5-b]pyridin-3-yl-1-{(R)-2-methyl-4-[2-(4-trifluoromethyl-phenyl)-1,2,3,4-tetrahydro-isoquinolin-8-yl]-piperazin-1-yl}-ethanone]
27 | 4.38 nM | COc1cccc(N2CCc3cccc(N4CCN(C(=O)Cn5cnc6cccnc65)[C@H](C)C4)c3C2)c1 [Example 97, 2-Imidazo[4,5-b]pyridin-3-yl-1-{(R)-4-[2-(3-methoxy-phenyl)-1,2,3,4-tetrahydro-isoquinolin-8-yl]-2-methyl-piperazin-1-yl}-ethanone]
28 | 11.6 nM | C[C@@H]1CN(c2cccc3c2CN(c2ccc(OC(F)(F)F)cc2)CC3)CCN1C(=O)Cn1cnc2cccnc21 [Example 98, 2-Imidazo[4,5-b]pyridin-3-yl-1-{(R)-2-methyl-4-[2-(4-trifluoromethoxy-phenyl)-1,2,3,4-tetrahydro-isoquinolin-8-yl]-piperazin-1-yl}-ethanone]
